Measurements published in PMC4122355, “Inhibitor of the Tyrosine Phosphatase STEP Reverses Cognitive Deficits in a Mouse Model of Alzheimer's Disease” (PLoS Biology, 2014).
Read-outs that look alike come from different tables or passages of the source.

Key:
[1] = tested on: GluN2B (Y1472), Pyk2 (Y402), ERK1/2 (Y204/187) in cortical neurons; experiment: Tyr phosphorylation of STEP substrates in cortical neuronal cultures (Western blot); type: cell-based, rat; details: 1 µM dose, 1 h, relative to vehicle
Experimental: (§1) Primary cortical neurons were isolated from Sprague Dawley rat embryos (E18) (Charles River Laboratories, Wilmington, MA) as previously described. In some experiments, cortical neurons were made from WT and STEP KO mouse embryos (E18). Neurons were allowed to grow for 18–21 d in CO2 incubator before addition of compounds at indicated doses for 1 h. Immediately following treatments, neurons were lysed in RadioImmuno Precipitation Assay (RIPA) buffer supplied with protease inhibitor cocktail (Roche Applied Science, Indianapolis, IN) and phosphatase inhibitors (NaF and Na3VO4). All experiments were replicated four times with four independent batches of cultures.
(§2) Samples were prepared and resolved by SDS-PAGE, transferred to nitrocellulose membrane, and incubated with phospho-specific antibodies (anti-pY^204/187 ERK1/2, anti-pY^402 Pyk2, anti-pY^1472 GluN2B) or total protein antibodies (anti-ERK2, anti-Pyk2, and anti-NR2B) overnight at 4°C. Immunoreactivity was visualized using a Chemiluminescent substrate kit (Pierce Biotechnology, Rockford, IL) and detected using a G:BOX with the image program GeneSnap (Syngene, Cambridge, UK). All densitometric quantifications were performed using the Genetools program.

[2] = tested on: GluN2B (Y1472), Pyk2 (Y402), ERK1/2 (Y204/187) in cortex; experiment: Tyr phosphorylation of STEP substrates in cortex of WT mice after i.p. injection; type: in vivo, mouse; details: C57BL/6 mice, 1 mg/kg i.p., 3 h postinjection, relative to vehicle
Experimental: Wild-type, male C57BL/6 mice (3–6 mo) were used for all studies. […] Cortical tissues were dissected out 3 h postinjection and processed for subcellular fractionation. […] Homogenates were centrifuged at 800 × g to remove nuclei and large debris (P1). Synaptosomal fractions (P2) were prepared from S1 by centrifugation at 9,200 × g for 15 min. The P2 pellet was washed twice and was resuspended in TEVP buffer. […] Samples were prepared and resolved by SDS-PAGE, transferred to nitrocellulose membrane, and incubated with phospho-specific antibodies (anti-pY^204/187 ERK1/2, anti-pY^402 Pyk2, anti-pY^1472 GluN2B) or total protein antibodies (anti-ERK2, anti-Pyk2, and anti-NR2B) overnight at 4°C. Immunoreactivity was visualized using a Chemiluminescent substrate kit (Pierce Biotechnology, Rockford, IL) and detected using a G:BOX with the image program GeneSnap (Syngene, Cambridge, UK). All densitometric quantifications were performed using the Genetools program.

[3] = cited from earlier work
[4] = tested on: GluN2B Y1472, Pyk2 Y402, ERK1/2 Y204/187 in WT and STEP KO cortical neurons; experiment: Tyr phosphorylation of STEP substrates in WT and STEP KO mouse cortical cultures; type: cell-based; details: STEP KO cultures, 1 h; TC-2153 0.1 and 1 µM, Na3VO4 1 mM
Experimental: as §1, §2

Compound: S1SSSSSSS1 [Compound S8, sulfur (S8)]
- pERK1/2 (Y204/187), phospho-signal normalized to total protein and GAPDH [1]: 1.67±0.14
- pGluN2B (Y1472), phospho-signal normalized to total protein and GAPDH [1]: 1.33±0.08
- pPyk2 (Y402), phospho-signal normalized to total protein and GAPDH [1]: 1.49±0.12
- pERK1/2 in cortex (P2 fraction) [2]: 1.57±0.13
- pGluN2B in cortex (P2 fraction) [2]: 1.31±0.11
- pPyk2 in cortex (P2 fraction) [2]: 1.46±0.14
- Solubility in aqueous solution ([3]; stated without reference): poorly soluble

Compound: [Na+].[Na+].[Na+].[O]=[V]([O-])([O-])[O-] [sodium orthovanadate, reference compound]
- Tyr phosphorylation of STEP substrates in STEP KO cortical cultures [4]: further increased the Tyr phosphorylation of these substrates

Compound: COc1cc(CCN)c2c(c1OC)SSSSS2 [varacin, reference compound]
- Solubility in aqueous solution [3]: reasonable solubility in aqueous solution
